Laboratory results reported in patent publication US12667619B2, “Integrin targeting ligands and uses thereof” (Arrowhead Pharmaceuticals, Inc., priority 2018, dated 2026).

Columns and labels:
αvβ3 integrin = αvβ3 integrin (Homo sapiens, UniProt P05106+P06756); experiment: IC50 binding activity, αvβ3 integrin; conditions: read-out: IC50 ανβ3
From the text: (§1) As reported in the following Table 1, IC50 binding data was obtained for the integrin targeting ligands of Structures 1c, 2c, and 3c, as w ell as an RGD-mimetic peptide:
(§2) Moreover, while the RGD-mimetic ligand is shown to have binding activity, the integrin targeting ligands of the present disclosure have increased stability, both with respect to serum stability in vim and chemical stability ex vim, compared to such peptide-based RGD-mimetic ligands.

ανβ6 = ανβ6 (Homo sapiens, UniProt P06756+P18564); experiment: IC50 binding activity, αvβ6 integrin
From the text: As reported in the following Table 1, IC50 binding data was obtained for the integrin targeting ligands of Structures 1c, 2c, and 3c, as w ell as an RGD-mimetic peptide: […]

αvβ5 integrin = αvβ5 integrin (Homo sapiens, UniProt P06756+P18084); experiment: IC50 binding activity, αvβ5 integrin; conditions: read-out: IC50 ανβ5
From the text: as §1, §2

Chain of ανβ6 (P06756 31-1048): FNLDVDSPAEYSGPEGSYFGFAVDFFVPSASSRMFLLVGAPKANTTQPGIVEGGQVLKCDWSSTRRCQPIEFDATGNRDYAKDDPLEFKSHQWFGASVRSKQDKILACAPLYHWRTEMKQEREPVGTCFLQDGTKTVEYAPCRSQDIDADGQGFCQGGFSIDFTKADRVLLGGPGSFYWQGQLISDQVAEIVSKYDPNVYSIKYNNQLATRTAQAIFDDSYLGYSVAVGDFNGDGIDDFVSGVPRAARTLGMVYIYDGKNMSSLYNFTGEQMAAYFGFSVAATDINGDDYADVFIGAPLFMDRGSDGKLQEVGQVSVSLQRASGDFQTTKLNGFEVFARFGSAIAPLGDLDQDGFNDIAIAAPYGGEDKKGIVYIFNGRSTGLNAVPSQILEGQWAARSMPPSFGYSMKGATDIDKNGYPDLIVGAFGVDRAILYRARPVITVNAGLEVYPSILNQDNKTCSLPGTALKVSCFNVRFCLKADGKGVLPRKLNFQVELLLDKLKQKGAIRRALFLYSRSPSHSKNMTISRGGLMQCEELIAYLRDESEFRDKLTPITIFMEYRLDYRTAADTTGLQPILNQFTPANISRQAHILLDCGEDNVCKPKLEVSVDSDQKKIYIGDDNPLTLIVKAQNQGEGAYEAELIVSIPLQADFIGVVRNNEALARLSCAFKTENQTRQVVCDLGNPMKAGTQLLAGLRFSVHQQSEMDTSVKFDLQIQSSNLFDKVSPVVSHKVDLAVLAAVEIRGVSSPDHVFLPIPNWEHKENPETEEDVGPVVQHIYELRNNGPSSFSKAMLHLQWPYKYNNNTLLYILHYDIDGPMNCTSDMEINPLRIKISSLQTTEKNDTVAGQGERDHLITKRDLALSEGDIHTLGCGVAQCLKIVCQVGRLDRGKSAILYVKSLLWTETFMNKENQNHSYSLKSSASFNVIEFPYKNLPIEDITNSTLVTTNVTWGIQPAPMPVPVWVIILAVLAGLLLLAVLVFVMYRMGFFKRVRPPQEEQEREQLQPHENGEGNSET
Chain of ανβ6 (P18564 22-788): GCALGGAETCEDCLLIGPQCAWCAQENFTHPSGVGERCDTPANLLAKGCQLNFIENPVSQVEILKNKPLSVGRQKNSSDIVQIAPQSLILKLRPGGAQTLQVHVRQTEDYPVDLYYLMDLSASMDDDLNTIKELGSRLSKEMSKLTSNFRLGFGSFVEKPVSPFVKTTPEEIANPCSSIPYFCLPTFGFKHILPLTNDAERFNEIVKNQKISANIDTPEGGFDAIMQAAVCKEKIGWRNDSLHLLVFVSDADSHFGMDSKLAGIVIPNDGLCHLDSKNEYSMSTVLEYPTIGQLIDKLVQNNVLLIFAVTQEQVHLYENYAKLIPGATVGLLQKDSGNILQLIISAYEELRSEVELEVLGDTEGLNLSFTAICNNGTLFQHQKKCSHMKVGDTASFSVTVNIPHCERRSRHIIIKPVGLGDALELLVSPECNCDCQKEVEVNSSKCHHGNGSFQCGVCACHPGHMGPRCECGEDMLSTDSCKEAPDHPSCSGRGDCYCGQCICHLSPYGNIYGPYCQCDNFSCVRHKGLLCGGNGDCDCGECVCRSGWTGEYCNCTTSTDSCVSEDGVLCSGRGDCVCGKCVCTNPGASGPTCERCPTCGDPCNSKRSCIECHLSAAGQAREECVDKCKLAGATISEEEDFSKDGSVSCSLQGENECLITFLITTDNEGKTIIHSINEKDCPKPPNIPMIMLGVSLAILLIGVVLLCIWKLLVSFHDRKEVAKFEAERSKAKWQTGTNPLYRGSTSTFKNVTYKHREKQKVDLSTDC
Chain of αvβ3 integrin (P06756 31-1048): as the sequence (P06756 31-1048) above
Chain of αvβ3 integrin (P05106 27-788): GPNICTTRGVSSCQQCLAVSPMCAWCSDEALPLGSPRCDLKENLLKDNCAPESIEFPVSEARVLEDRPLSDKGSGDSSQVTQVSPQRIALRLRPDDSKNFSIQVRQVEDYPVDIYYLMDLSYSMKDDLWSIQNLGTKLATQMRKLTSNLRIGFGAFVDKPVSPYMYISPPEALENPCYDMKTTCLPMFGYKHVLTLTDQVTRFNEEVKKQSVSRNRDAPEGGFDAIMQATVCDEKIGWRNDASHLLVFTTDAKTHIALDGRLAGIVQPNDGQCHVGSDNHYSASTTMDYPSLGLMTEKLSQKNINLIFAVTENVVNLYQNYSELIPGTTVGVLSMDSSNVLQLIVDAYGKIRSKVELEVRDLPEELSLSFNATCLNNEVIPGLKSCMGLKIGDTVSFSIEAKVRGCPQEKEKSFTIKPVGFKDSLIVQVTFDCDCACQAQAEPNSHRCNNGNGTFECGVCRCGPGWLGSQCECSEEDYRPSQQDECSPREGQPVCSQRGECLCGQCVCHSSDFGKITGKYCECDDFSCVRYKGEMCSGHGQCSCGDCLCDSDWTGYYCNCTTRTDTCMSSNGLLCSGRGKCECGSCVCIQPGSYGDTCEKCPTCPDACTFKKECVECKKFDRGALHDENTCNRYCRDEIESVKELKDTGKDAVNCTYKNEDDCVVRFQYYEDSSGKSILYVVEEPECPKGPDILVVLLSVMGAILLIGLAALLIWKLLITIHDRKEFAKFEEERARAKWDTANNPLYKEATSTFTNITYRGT
Chain of αvβ5 integrin (P06756 31-1048): as the sequence (P06756 31-1048) above
Chain of αvβ5 integrin (P18084 24-799): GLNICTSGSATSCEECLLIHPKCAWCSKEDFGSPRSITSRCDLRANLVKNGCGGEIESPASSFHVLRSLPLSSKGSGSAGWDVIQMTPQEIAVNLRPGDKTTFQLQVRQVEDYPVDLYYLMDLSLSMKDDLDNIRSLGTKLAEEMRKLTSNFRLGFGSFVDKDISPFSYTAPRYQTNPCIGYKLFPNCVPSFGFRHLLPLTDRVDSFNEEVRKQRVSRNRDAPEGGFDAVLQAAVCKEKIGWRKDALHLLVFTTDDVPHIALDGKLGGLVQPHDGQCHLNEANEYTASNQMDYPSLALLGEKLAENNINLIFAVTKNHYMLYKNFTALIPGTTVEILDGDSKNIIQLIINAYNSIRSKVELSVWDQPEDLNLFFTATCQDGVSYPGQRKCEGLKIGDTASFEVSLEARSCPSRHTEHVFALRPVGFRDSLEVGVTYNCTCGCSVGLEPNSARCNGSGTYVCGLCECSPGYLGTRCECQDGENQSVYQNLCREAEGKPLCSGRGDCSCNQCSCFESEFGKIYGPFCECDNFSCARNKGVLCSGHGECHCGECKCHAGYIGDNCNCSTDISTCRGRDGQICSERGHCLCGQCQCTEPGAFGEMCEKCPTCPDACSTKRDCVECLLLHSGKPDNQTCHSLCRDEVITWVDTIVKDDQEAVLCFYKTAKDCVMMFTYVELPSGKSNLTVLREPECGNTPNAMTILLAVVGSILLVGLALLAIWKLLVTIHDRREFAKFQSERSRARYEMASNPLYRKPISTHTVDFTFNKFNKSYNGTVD

| IC50 (αvβ3 integrin) [nM] | IC50 (ανβ6) [nM] | IC50 (αvβ5 integrin) [nM] | Structure (SMILES) |
| --- | --- | --- | --- |
| 0.3 | 5.3 | 0.6 | [N-]=[N+]=NCCOCCOCCOCCOCCC(=O)NCCCOc1ccc([C@H](CC(=O)O)N2CCN(CCCc3ccc4c(n3)NCCC4)C2=O)cn1 [Structure 1c, (S)-3-(6-((1-azido-15-oxo-3,6,9,12-tetraoxa-16-azanonadecan-19-yl)oxy)pyridin-3-yl)-3-(2-oxo-3-(3-(5,6,7,8-tetrahydro-1,8-naphthyridin-2-yl)propyl)imidazolidin-1-yl)propanoic acid] |
| 0.3 | 8.9 | 5.6 | [N-]=[N+]=NCCOCCOCCOCCOc1ccc([C@H](CC(=O)O)N2CCN(CCCc3ccc4c(n3)NCCC4)C2=O)cc1F [Structure 2c, (S)-3-(4-(2-(2-(2-(2-azidoethoxy)ethoxy)ethoxy)ethoxy)-3-fluorophenyl)-3-(2-oxo-3-(3-(5,6,7,8-tetrahydro-1,8-naphthyridin-2-yl)propyl)imidazolidin-1-yl)propanoic acid] |
